# Laboratory results taken from US9572893B2, “Nanocomplex containing cationic peptide for biomolecule delivery” (Council of Scientific and Industrial Research, priority 2012, dated 2017).
# Where a SMILES comes first, the peptide text is derived from it.
# Tests used:
# Format in all cases: cell-based
# [1] = test system: CHO-K1 cells; assay: Cytotoxicity of nanocomplex using MTT assay
# Method: (§1) FIG. 3: Cell viability measured via MTT assay and CellTitreGLO assay. CHO-K1 cells and HACAT cells were treated with arginines-histidine-cysteine based peptides comprising nanocomplexes (at charge ratio 10.0) and a Lipofectamine™/Cellfectin™/Superfect™-DNA complex for 4 hours and cell viability was assessed after 24 hours. Untreated cells are taken as control and their absorbance (in the presence of MTT reagent and cell titre GLO reagent) is set as 100% and relative decrease in absorbance is taken as measure of cell viability.
# (§2) CHO-K1 cells were seeded at density of 7000 cells per well in 96 well plate format in Hams F12K media containing 10% FBS at 37° C. and 5% CO2 in humidified incubator. After 24 hours cells were washed with serum free media and treated with different nanocomplex at Z=10.0 (in quadruplets) for 4 hours, keeping DNA concentration 200 ng/well. The viability was assayed after 4 hrs and 24 hrs (in the latter case nanocomplex containing media was replaced with complete media after 4 hrs) of transfection. Briefly 100 ul of MTT reagent (0.5 mg/ml) was added to each well and incubated at 37° C. for 2 hrs to allow formation of formazan crystals. […] Following incubation 100 ul MTT detergent buffer (0.5 ml 10% SDS and 0.06 ml 12N HCl in 10 ml isopropanol) was added to each well and crystals were dissolved by gentle shaking for 30 mins. Finally the absorbance was recorded at 550 nm and 670 nm (to negate debris) along with the blank using ELISA plate reader. The percentage viability was calculated by Treated wells (OD550−OD670)/Untreated well (OD550−OD670)*100. The average of two independent experiments is plotted where each treatment is performed in quadruplets.
# [2] = Cytotoxicity of nanocomplex using MTT assay; settings: CHO-K1 cells, charge ratio 10.0, treated 4 hours; read-out: cell viability
# Method: as §1, §2
# [3] = test system: CHO-K1 cells and HACAT cells; assay: Cell viability / cytotoxicity, cell line not stated (MTT and CellTitreGLO); settings: cell line not stated
# Method: as §1
# CHO-K1 cells were seeded at density of 7000 cells per well in 96 well plate format in Hams F12K media containing 10% FBS at 37° C. and 5% CO2 in humidified incubator. […] Finally the absorbance was recorded at 550 nm and 670 nm (to negate debris) along with the blank using ELISA plate reader. The percentage viability was calculated by Treated wells (OD550−OD670)/Untreated well (OD550−OD670)*100. […]
# The experiment was performed in 96 well plate format wherein the Hacat cells were seeded at 50000 cells per well in DMEM-F12 media containing 10% FBS at 37° C. and 5% CO2 in humidified incubator. […] The plate was then kept in dark for 10 mins at RT for stabilization of the luminescence signal. The reading was recorded on Tecan system and plotted as % cell viability.
# [4] = test system: Hacat cells; assay: Cytotoxicity estimation using Celltitre GLO method
# Method: as §1
# (§3) The experiment was performed in 96 well plate format wherein the Hacat cells were seeded at 50000 cells per well in DMEM-F12 media containing 10% FBS at 37° C. and 5% CO2 in humidified incubator. After 24 hours cells were washed with serum free media and treated with nanocomplex at Z=10.0 (in quadruplets) for 4 hours, keeping DNA concentration 200 ng/well. The viability was assayed after 4 hrs and 24 hrs (in the latter case nanocomplex containing media was replaced with complete media after 4 hrs) of transfection. Initially the plate was equilibrated for 30 mins at RT followed by addition of 100 ul of cell titre GLO reagent with continuous shaking on rotor for 2 mins to allow cell lysis. The plate was then kept in dark for 10 mins at RT for stabilization of the luminescence signal. The reading was recorded on Tecan system and plotted as % cell viability.
# [5] = Cytotoxicity estimation using Celltitre GLO method; settings: human; Hacat cells, charge ratio 10.0, treated 4 hours; read-out: cell viability
# Method: as §1, §3
SMILES,cell viability compared to Cellfectin and Superfect transfection agents [1],viability at 4 h [2],cytotoxicity [3],cell viability compared to Cellfectin [4],viability at 4 h [5]
"N=C(N)NCCC[C@H](NC(=O)[C@H](CCCNC(=N)N)NC(=O)[C@H](CCCNC(=N)N)NC(=O)[C@H](CCCNC(=N)N)NC(=O)[C@H](Cc1c[nH]cn1)NC(=O)[C@H](Cc1c[nH]cn1)NC(=O)[C@H](Cc1c[nH]cn1)NC(=O)[C@H](Cc1c[nH]cn1)NC(=O)[C@H](CCCNC(=N)N)NC(=O)[C@H](CCCNC(=N)N)NC(=O)[C@H](CCCNC(=N)N)NC(=O)[C@H](CCCNC(=N)N)NC(=O)[C@H](CCCNC(=N)N)NC(=O)[C@@H](N)CS)C(=O)N[C@@H](Cc1c[nH]cn1)C(=O)N[C@@H](Cc1c[nH]cn1)C(=O)N[C@@H](Cc1c[nH]cn1)C(=O)N[C@@H](CS)C(=O)O [CR5H4R4H3C, CRRRRRHHHHRRRRHHHC] (H-CRRRRRHHHHRRRRHHHC-OH)",comparable,80 to 90%,minimal,comparable,80 to 90%
"N=C(N)NCCC[C@H](NC(=O)[C@H](Cc1c[nH]cn1)NC(=O)[C@H](CCCNC(=N)N)NC(=O)[C@H](Cc1c[nH]cn1)NC(=O)[C@H](CCCNC(=N)N)NC(=O)[C@H](Cc1c[nH]cn1)NC(=O)[C@H](CCCNC(=N)N)NC(=O)[C@H](Cc1c[nH]cn1)NC(=O)[C@H](CCCNC(=N)N)NC(=O)[C@H](Cc1c[nH]cn1)NC(=O)[C@H](CCCNC(=N)N)NC(=O)[C@H](Cc1c[nH]cn1)NC(=O)[C@H](CCCNC(=N)N)NC(=O)[C@H](Cc1c[nH]cn1)NC(=O)[C@H](CCCNC(=N)N)NC(=O)[C@H](CCCNC(=N)N)NC(=O)[C@@H](N)CS)C(=O)N[C@@H](CS)C(=O)O [CR(RH)7RC, CRRHRHRHRHRHRHRHRC] (H-CRRHRHRHRHRHRHRHRC-OH)",comparable,70 to 80%,minimal,comparable,80 to 90%
